How the values were obtained:
[1] = test system: purified bovine brain tubulin; assay: Tubulin polymerization (optical density at 350 nm); assay type: biochemical; conditions: 10 uM, 6 C.-37 C.
[2] = test system: A549 human adenocarcinoma and P388 murine leukemia cell lines; assay: Antitumor effects of discodermolide analogs compared to discodermolide; assay type: cell-based; conditions: compared to the non-acetylated discodermolide
Procedure: (§1) Discodermolide and discodermolide analogs were analyzed as to their effects on proliferation of A549 human adenocarcinoma and P388 murine leukemia cell lines. P388 cells were obtained from Dr. R. Camalier, National Cancer Institute, Bethesda, Md., and A549 cells were obtained from American Type Culture Collection, Rockville, Md. All cell lines were maintained in Roswell Park Memorial Institute (RPMI) medium 1640 supplemented with 10% Rehatuin™ fetal calf serum (Intergen Company, Purchase, N.Y.). All cell lines are cultured in plastic tissue culture flasks and kept in an incubator at 37° C. in humidified air containing 5% CO2. Prior to testing, antibiotic-free stock cultures of each of the cell lines were subcultured to 10^6 cells/ml by dilution in fresh growth medium at 2 to 3 day intervals.
(§2) To assess the antiproliferative effects of agents against the P388 cell line, 200 μl cultures (96-well tissue culture plates, Nunc, Denmark) are established at 1×10^5 cells/ml in drug-free medium or medium containing the test agent at 10.0, 1.0, 0.10 and 0.010 μg/ml. The solvent for all dilutions is ethanol. All experimental cultures are initiated in medium containing Gentamycin sulfate (50 μg/ml; Schering Corporation, Kenilworth, N.J.).
(§3) After 48-hr exposures, P388 cells are enumerated using 3-[4,5-Dimethylthiazol-2-yl]-2,5-diphenyltetrazolium bromide (MTT) (M. C. Alley, et al., Cancer Res. 48:589, 1988). Similar procedures are utilized for A549 cells which require an additional 48 hr exposure prior to MTT addition. Results are expressed as percent inhibition compared to the negative (no drug) control. Positive drug controls are included to monitor drug sensitivity of each of the cell lines. These include varying dilutions of 5-fluorouracil and adriamycin.
To quantitate the effects on cell proliferation and resulting IC50 values, 75 μl of warm growth media containing 5 mg/ml MTT is added to each well, cultures returned to the incubator, and left undisturbed for 90 minutes. […]

[3] = test system: P388 murine leukemia cell line; assay: Antiproliferative effect on P388 cells (MTT, 48-hr exposure); assay type: cell-based; conditions: Mus musculus, read-out: P388 IC-50
Procedure: as §1, §2, §3
(§4) To quantitate the effects on cell proliferation and resulting IC50 values, 75 μl of warm growth media containing 5 mg/ml MTT is added to each well, cultures returned to the incubator, and left undisturbed for 90 minutes. To spectrophotometrically quantitate formation of reduced formazan, plates are centrifuged (900× g, 5 minutes), culture fluids removed by aspiration, and 200 μl of acidified isopropanol (2 ml concentrated HCl/liter isopropanol) added per well. The absorbance of the resulting solutions is measured at 570 nm with a plate reader (TECAN Spectra II PlateReader, TECAN U.S., Research Triangle Park, N.C.) and a 650 nm reference filter. The absorbance of tests wells is divided by the absorbance of drug-free wells, and the concentration of agent that results in 50% of the absorbance of untreated cultures (IC50) is determined by linear regression of logit-transformed data (D. J. Finney, Statistical Method in Biological Assay, third ed., pp.316-348, Charles Griffin Co., London, 1978). A linear relationship between tumor cell number and formazan production has been routinely observed over the range of cell densities observed in these experiments. Two standard drug controls are included in each assay as a check to monitor the drug sensitivity of each of the cell lines and IC50 values are determined for each drug-cell combination.

[4] = test system: A549 human adenocarcinoma cell line; assay: Antiproliferative effect on A549 cells (MTT); assay type: cell-based; conditions: additional 48 hr exposure, read-out: A549 IC-50
Procedure: as §1
as §3, with “Similar procedures are utilized for A549 cells which require an additional 48 hr exposure prior to MTT addition.” left out
as §4

[5] = test system: microtubule network of cells; assay: Microtubule bundling patterns in cells by immunofluorescence; assay type: cell-based; conditions: for Microtubule bundling: concentration not given
Procedure: Discodermolide, discodermolide analogs and paclitaxel were evaluated as to their effects on the microtubule network of cells using FITC-labeled, anti-alpha-tubulin monoclonal antibodies.
On day 1, 2.5×10^5 adherent tumor cells were cultured in RPMI 1640 tissue culture medium supplemented with 10% fetal calf serum (TCM) overnight at 37° C. in 5% CO2 on 22 mm^2 coverslips in 6-well microtiter plates. […] On day 3, TCM was removed and cells attached to coverslips were fixed with a 3.7% formaldehyde solution in Dulbecco's PBS for 10 minutes at room temperature. Cells were permeabilized with a 2% Triton X-100 solution, 2 ml per well, for 5 minutes at room temperature and washed twice in Dulbecco's PBS prior to staining.
To each well containing cells attached to coverslips a 2 ml volume of mouse monoclonal anti-alpha-tubulin (Cat # T-5168, Sigma Immuno Chemicals) diluted 1:2400 was added and the cells incubated at 37° C. in 5% CO2 for 45 minutes. Coverslips were rinsed twice with Dulbecco's PBS. A 2 ml volume of goat-anti-mouse-IgG-FITC conjugate (Cat # T-5262, Sigma Immuno Chemicals) diluted at 1:2400 was added and the cells incubated at 37° C. in 5% CO2 for 45 minutes. Coverslips were rinsed once with sterile distilled water and mounted on slides and observed under the microscope using epifluorescence illumination for the presence of abnormal aster and microtubule bundle formation.

[6] = test system: purified bovine brain tubulin; assay: Tubulin polymerization (optical density at 350 nm); assay type: biochemical; conditions: for Polymerization?: 10 uM, 37 C.; for microtubule polymerizing activity compared to discodermolide: compared to the non-acetylated discodermolide
Procedure: Polymerization of purified bovine brain tubulin (Cytoskeleton Inc., Denver, Colo.) was followed by changes in the optical density of tubulin solutions at 350 nm in a Hitachi U-3010 spectrophotometer equipped with a SPR-10 electronic thermostatted cell holder. Stock solutions of tubulin were diluted on ice in G-PEM buffer (1 mM GTP, 80 mM PIPES, 1 mM EGTA, 0.5 mM magnesium chloride; pH 6.8) to a final concentration of 1 mg/ml. The instrument was zeroed on this solution at 2° C. Discodermolide, its analogs, or paclitaxel were then added to the tubulin solution to a final concentration of 10 μM, quickly mixed, and the absorbance monitored at 37° C.

A549 human lung cells = assay: Effect on cell cycle progression (G2/M block, propidium iodide flow cytometry); assay type: cell-based; conditions: 100 nM, 48 hr
Procedure: A549 human lung cells were used as cell cycle targets to compare the effects of discodermolide, discodermolide analogs and paclitaxel on perturbation of the cell cycle. Cell cycle analyses were performed as follows: A549 cells were incubated at 37° C. in 10% CO2 in air in the presence or absence of varying concentrations of discodermolide, discodermolide analogs or paclitaxel (purchased from Molecular Probes, Eugene Oreg.) for 48 hr.
Cells were harvested, fixed in ethanol and stained with 0.5 mg/ml of P.I. together with 0.1 mg/ml of RNAse A. This procedure permeabilizes live cells and allows entry of P.I. to stain DNA (propidium iodide also stains double stranded RNA, so RNAse is included in the preparation to exclude this possibility). Stained preparations were analyzed on a Coulter EPICS ELITE with 488 nm excitation with the dead cells excluded by back gating of P.I. preparations without detergent on forward and side scatter histograms. Fluorescence measurements and resulting DNA histograms were collected from at least 5,000 P.I. stained cells at an emission wavelength of 690 nm. Raw histogram data was further analyzed using a cell cycle analysis program (Multicycle, Phoenix Flow Systems).

| Structure (SMILES) | Polymerization? [1] | antitumor activity compared to discodermolide [2] | IC50 [3] | IC50 [4] | Microtubule Bundling? ([5]; 100 nM) | Microtubule Bundling? ([5]; 1000 nM) | Polymerization? [6] | microtubule polymerizing activity compared to discodermolide [6] | Microtubule bundling [5] | Microtubule Bundling? ([5]; 10 nM) | Microtubule Bundling? ([5]; 100 nM, listed as paclitaxel) | Polymerization? ([6]; listed as paclitaxel) | G2/M Block (A549 human lung cells) | Microtubule Bundling? ([5]; 100 nM, listed as Discodermolide9) | Polymerization? ([6]; listed as discodermolide 9) |
| --- | --- | --- | --- | --- | --- | --- | --- | --- | --- | --- | --- | --- | --- | --- | --- |
| C=CC=CC(C)C(OC(N)=O)C(C)C(O)C(C)CC(C)=CC(C)C(O)C(C)C=CC(CC1OC(=O)C(C)C(O)C1C)OC(C)=O (stereo not drawn) [Analog 8, Discodermolide-7-acetate] | Yes | improved | 4 nM | 0.8 nM | Yes and induced similar microtubule bundle formation | Yes | able to induce tubulin polymerization | improved | – | – | – | – | – | – | – |
| C=CC=CC(C)C(OC(N)=O)C(C)C(O)C(C)CC(C)=CC(C)C(OC(C)=O)C(C)C=CC(CC1OC(=O)C(C)C(OC(C)=O)C1C)OC(C)=O (stereo not drawn) [Analog 3, Discodermolide-3,7,11-triacetate] | – | – | 166 nM | 554 nM | No | – | No and inactive | – | negative | – | – | – | – | – | – |
| C=CC=CC(C)C(OC(N)=O)C(C)C(O)C(C)CC(C)=CC(C)C(O)C(C)C=CC(CC1OC(=O)C(C)C(OC(C)=O)C1C)OC(C)=O (stereo not drawn) [Analog 4, Discodermolide-3,7-diacetate] | – | improved | 0.7 nM | 3.7 nM | Yes and induced similar microtubule bundle formation | – | Yes and able to induce tubulin polymerization | improved | – | Yes | – | – | – | – | – |
| C=CC=CC(C)C(OC(N)=O)C(C)C(OC(C)=O)C(C)CC(C)=CC(C)C(O)C(C)C=CC(CC1OC(=O)C(C)C(OC(C)=O)C1C)OC(C)=O (stereo not drawn) [Analog 2, Discodermolide-3,7,17-triacetate] | – | – | > 6820 nM | > 1310 nM | No | No | No and inactive | – | negative | – | – | – | – | – | – |
| C=CC=CC(C)C(OC(N)=O)C(C)C(O)C(C)CC(C)=CC(C)C(OC(C)=O)C(C)C=CC(O)CC1OC(=O)C(C)C(OC(C)=O)C1C (stereo not drawn) [Analog 5, Discodermolide-3,11-diacetate] | – | – | 103 nM | 295 nM | No | – | No and inactive | – | negative | – | – | – | – | – | – |
| C=CC=CC(C)C(OC(N)=O)C(C)C(OC(C)=O)C(C)CC(C)=CC(C)C(O)C(C)C=CC(O)CC1OC(=O)C(C)C(OC(C)=O)C1C (stereo not drawn) [Analog 6, Discodermolide-3,17-diacetate] | – | – | 1150 nM | 736 nM | No | Yes and induced microtubule bundles only at 1000 nM | No and inactive | – | – | – | – | – | – | – | – |
| CC(=O)O[C@H]1C(=O)[C@@]2(C)[C@H]([C@H](OC(=O)c3ccccc3)[C@]3(O)C[C@H](OC(=O)[C@H](O)[C@@H](NC(=O)c4ccccc4)c4ccccc4)C(C)=C1C3(C)C)[C@]1(OC(C)=O)CO[C@@H]1C[C@@H]2O [Paclitaxel, reference compound] | – | – | – | 7.7 nM | Yes | – | Yes | – | routinely exhibit abnormal formation of multiple centriolar-radiating microtubules with extensive clusters of associated microtubular "bundles" | – | induced the formation of microtubule bundles | induced the polymerization of purified tubulin | – | – | – |
| C=C/C=C\[C@H](C)[C@H](OC(N)=O)[C@@H](C)[C@H](O)[C@@H](C)C/C(C)=C\[C@H](C)[C@@H](O)[C@@H](C)/C=C\[C@@H](O)C[C@@H]1OC(=O)[C@H](C)[C@@H](O)[C@H]1C [Discodermolide 9, (+)discodermolide, reference compound] | – | – | 35 nM | 34 nM | Yes | – | Yes | – | routinely exhibit abnormal formation of multiple centriolar-radiating microtubules with extensive clusters of associated microtubular "bundles" | Yes | – | – | induced cell cycle, G2 /M block | induced the formation of microtubule bundles | induced the polymerization of purified tubulin |
| C=CC=CC(C)C(OC(N)=O)C(C)C(O)C(C)CC(C)=CC(C)C(O)C(C)C=CC(O)CC1OC(=O)C(C)C(OC(C)=O)C1C (stereo not drawn) [Analog 7, Discodermolide-3-acetate] | – | improved | 9 nM | 9.4 nM | Yes and induced similar microtubule bundle formation | – | Yes and able to induce tubulin polymerization | improved | – | Yes | – | – | – | – | – |
| C=CC=CC(C)C(OC(N)=O)C(C)C(OC(C)=O)C(C)CC(C)=CC(C)C(OC(C)=O)C(C)C=CC(CC1OC(=O)C(C)C(OC(C)=O)C1C)OC(C)=O (stereo not drawn) [Analog 1, Discodermolide-3,7,11,17-tetraacetate] | – | – | 837 nM | 1310 nM | No | – | No and inactive | – | negative | – | – | – | – | – | – |
